From patent publication US6958359B1, “Vanadium compounds as anti-angiogenic agents” (Parker Hughes Institute, priority 2000, dated 2005)
pIC50: −log10 of the molar value.

What was measured:
Zebra fish embryos = experiment: Zebrafish embryo model system, incubation of dechorionated two-cell stage embryos with drug; format: in vivo, Danio rerio
Procedure: ZF eggs were removed from their chorions by mild digestion in 1% Trypsin-EDTA (Sigma, St.Louis, Mo.) for 10 minutes at 28.5° C. (Standard temperature—ST), washed three times in “egg water” and twice in “embryonic medium” (EM), according to recommendations (Westerfield, The Zebrafish Book, Supra). The dechorionated two-cell stage cleaving eggs were transferred to the 24-well plastic cell culture plates (Costar, Cambridge, Mass.) filled with EM. Dechorionated embryos (10-12 per well) were exposed to the drugs at a constant ST for 0.5-24 hours. The final volume of the media in each well was 500 μL. The compound was tested at concentrations ranging from 10 μM to 4 mM. First dissolved in DMSO, it was then diluted serially with the incubation medium. The final concentration of DMSO in the wells was 1.2%. […]
(§1) Observations of cell division and development of the ZF embryos were carried out using a SMZ-10A stereo microscope (Nicon, Melville, N.Y.), once every 30 minutes within the first 3 hours of incubation and at 6, 12 and 24 hours, as well. […] The absorbance of each well was measured in a microplate reader (Labsystems) at 540 nm and a reference wavelength of 690 nm. The percent survival and the IC50 values were calculated using Graphpad Prism software version 2.0 (Graphpad Software, Inc., San Diego, Calif.), as described previously. […]

[1] = test system: BT-20 breast cancer cells; experiment: Immunocytochemistry and confocal microscopic analysis of mitotic spindles; format: cell-based, human; conditions: BT-20 cells, α-tubulin and DNA staining, confocal laser scanning microscopy
Procedure: At the appropriate time points coverslips containing BT-20 cells were fixed in−20° C. methanol for 15 minutes followed by 15 minutes incubation in phosphate buffered saline +0.1% Triton X-100 (PBS-Tx). Coverslips were next incubated with a primary antibody recognizing α-tubulin (Sigma, St.Louis Mo.) for 40 minutes in a humidified chamber at 37° C. Coverslips were washed for 15 minutes in PBS-Tx followed by a 40 minutes incubation with a fluorescently labeled secondary antibody (Jackson Immunoresearch, West Grove, Pa.). The coverslips were again rinsed in PBS-Tx and incubated with 5 μM Toto-3 (Molecular Probes, Eugene Oreg.) for 20 minutes to label the DNA. Coverslips were immediately inverted onto slides in Vectashield (Vector Labs, Burlingame, […].) to prevent photobleaching, sealed with nail polish and stored at 4° C.
Slides were examined using a Bio-Rad MRC-1024 Laser Scanning Confocal Microscope mounted on a Nikon Eclipse E800 upright microscope with high numerical aperture objectives. Slides were examined to determine the percentage of cells in interphase vs. mitosis and representative images were taken. Digital data was processed using Lasersharp (Bio-Rad, Hercules, Calif.) and Photoshop (Adobe Systems, Mountain View, Calif.) software and printed on a Pictrography printer (Fuji Photo Elmsford, N.Y.)

two-cell stage ZF eggs = experiment: Zebrafish embryo microinjection into cytoplasm of two-cell stage eggs; format: in vivo, Danio rerio
Procedure: Microinjections were performed with the help of a SMZ-10A stereo microscope (Nicon, Melville, N.Y.) and transjector 5246 (Eppendorf Scientific Inc, Westbury, N.Y. 11590) at RT. The eggs in chorions were restrained in agar grooves filled with EM, and the drug containing solution was introduced into the cytoplasm of one of the blastomeres of the two-cell stage eggs through a micropipette with a splinted sharp tip of 2-3 μm in diameter. All microinjections were performed under visual control. Drugs for injection were dissolved in Hank's Balanced Salt Saline (Gibco, Rockville, Md.) with 10% DMSO. The volume of the solution injected into each blastomere was approximately […]. For every drug, 40-50 embryos were injected in 30 minutes of one series of experiment. After the treatment the embryos were transferred back to ST and studied as above.
as §1

[2] = test system: CAMs of growing chick embryos; experiment: Chick embryo chorioallantoic membrane (CAM) assay, inhibition of angiogenesis; format: in vivo, chick (white Leghorn chicken); conditions: for Avascular Zone: assessed 48 hours after implantation
Procedure: Inhibition of embryonic angiogenesis was determined using a bioassay system involving CAMs of growing chick embryos, as previously described (Nguyen et al, Microvascular Research, 47:31, 1994; Auerbach et al, Developmental Biology, 41:391, 1974). Fertilized white Leghorn chicken eggs were received at day 3 of incubation from the University of Minnesota Poultry Research Center, St. Paul, Minn. The following procedures took place in a sterile laminar flow hood. The eggs were wiped down with 70% isoprpyl alcohol and allowed to air dry. The eggs were wiped with Betadine and placed in a horizontal position for approximately 5 minutes and allowed to dry. The eggs were cracked and placed into sterile 100×20 mm^2 Petri dishes (Fischer, Itasca, Ill.) and transferred to a 37° C. humidified incubator (1.5% CO2). […] Louis, Mo.) were prepared by pipetting 10 μl of the compound, using a positive displacement pipette, onto sterile Teflon™ PFA Petri dishes (VWR, Chicago, Ill.) and drying in a vacuum desiccator at ambient temperature. […] The eggs were returned to a humidified 1.5% CO2/37° C. incubator.
Inhibition of angiogenesis was assessed 48 hours after implantation by measuring the avascular one in the CAM beneath the pellet, followed by photographic documentation of the CAM. Pellets containing 200 μg suramin (Calbiochem, La Jolla, Calif.) served as a positive control. The methylcellulose disk alone with no added compounds served as a negative control. Significant inhibition of angiogenesis was defined as the presence of an avascular zone of at least 3 mm in diameter around the methylcellulose disk.

[3] = test system: glioblastoma cell line U373; experiment: MTT cytotoxicity assay; format: cell-based, human; conditions: 48 hours, read-out: IC50 inhibition of proliferation
Procedure: (§2) Observations of cell division and development of the ZF embryos were carried out using a SMZ-10A stereo microscope (Nicon, Melville, N.Y.), once every 30 minutes within the first 3 hours of incubation and at 6, 12 and 24 hours, as well. […] The stereo microscope was fitted with a specially designed transparent heating tray in order to keep embryos at ST during observations. Pictures of the embryos were taken with a H-III Photomicrographic System (Nicon, Melville, N.Y.) using Ektachrome 64X film (Kodak, Rochester, N.Y.). Cytotoxicity MTF Assays The cytotoxicity of [VCp2(acac)](CF3SO3) against human cancer cell lines was performed as described previously (Ghosh et al, Clinc Canc Res, 6:1536, 2000) using the MTT (3-[4,5-dimethylthiazol-2-yl]-2,5-diphenyl tetrazolium bromide) assay (Boehringer Mannheim Corp., Indianapolis, Ind.). Briefly, exponentially growing tumor cells were seeded into a 96-well plate at a density of 2.5×10^4 cells/well and incubated [VCp2(acac)](CF3SO3) or 0.1% DMSO in PBS concentrations ranging from 0.1 to 250 μM. Following incubation with drug for 48 hours at 37° C., to each well, 10 μl of MTT (0.5 mg/ml final concentration) was added and the plates were incubated at 37° C. for 4 hours to allow MTT to form formazan crystals by reacting with metabolically active cells. The formazan crystals were solubilized overnight at 37° C. in a solution containing 10% SDS in 0.01 M HCl. The absorbance of each well was measured in a microplate reader (Labsystems) at 540 nm and a reference wavelength of 690 nm. The percent survival and the IC50 values were calculated using Graphpad Prism software version 2.0 (Graphpad Software, Inc., San Diego, Calif.), as described previously. Ghosh et al, Clinc Canc Res, 6:1536, 2000.

[4] = test system: breast cancer cell line BT-20; experiment: MTT cytotoxicity assay; format: cell-based, human; conditions: BT-20, MTT, 48 hours; read-out: IC50 inhibition of proliferation
Procedure: as §2

[5] = test system: breast cancer cell line MDA-MB-231; experiment: MTT cytotoxicity assay; format: cell-based, human; conditions: MDA-MB-231, MTT, 48 hours; read-out: IC50 inhibition of proliferation
Procedure: as §2

With `CC(=O)C=C(C)[O-].O=S(=O)([O-])C(F)(F)F.[V+4].c1cc[cH-]c1.c1cc[cH-]c1` [VDacac, Vanadocene acetylacetonato monotriflate] the “effect on cell division / embryonic development” value (Zebra fish embryos; 0.6 mM in embryonic medium, 28.5° C.) was “cell division block at the 8-16 cell stage of embryonic development followed by total cell fusion and developmental arrest”, the “effect on cell division / embryonic development” value (Zebra fish embryos; concentrations lower than 0.6 mM, within 120 minutes of incubation) was “cell proliferation continued but was abnormal” and the mitotic spindle organization [1] was “aberrant monopolar mitotic structures”. For the same compound, the “anti-proliferative effect after microinjection” value (two-cell stage ZF eggs; 1 pmol/embryo microinjected) was “formation of a blastocoel-like cavity in the blastoderm of late blastulae and early gastrulae and disrupted further gastrulation”, the “anti-proliferative effect after microinjection” value (two-cell stage ZF eggs; 40 pmols/cell microinjected) was “slowed down cell division and resulted in deterioration of the cell localization pattern and developmental block” and the “Avascular Zone” value ([2]; VDacac 1 (mg) pellet on CAM) was 7.0 ± 1.5 mm^2. The “Avascular Zone” value ([2]; VDacac 10 (mg) pellet on CAM) was 38.4 ± 16.6 mm^2, the “Avascular Zone” value ([2]; VDacac 100 (mg) pellet on CAM) was 92.4 ± 24.9 mm^2 and the “effect on angiogenesis in CAM” value ([2]; methylcellulose disks, doses ranging from 1 μg to 100 μg, 4-6 day old chick embryos) was “rapidly inhibited angiogenesis and produced within one hour a large avascular zone”. For the same compound, the pIC50 [3] was 4.45, the pIC50 [4] was 4.60 and the pIC50 [5] was 5.02.
